Assay results published in ChEMBL document CHEMBL2440076, “New triarylpyrazoles as broad-spectrum anticancer agents: design, synthesis, and biological evaluation” (Eur J Med Chem, 2013).

What was measured:
Format in all cases: functional
T47D = assay: Growth inhibition of human T47D cells assessed as cell growth at 3X10'-9 M after 48 hrs by sulforhodamine B assay; details: read-out: Activity
786-0 [1] = assay: Growth inhibition of human 786-0 cells assessed as cell growth at 3X10'-7 M after 48 hrs by sulforhodamine B assay; details: 786-0, 48 h, read-out: Activity
SF-539 = assay: Growth inhibition of human SF539 cells assessed as cell growth at 3X10'-7 M after 48 hrs by sulforhodamine B assay; details: SF-539, 48 h, read-out: Activity
SNB-75 = assay: Growth inhibition of human SNB75 cells assessed as cell growth at 3X10'-9 M after 48 hrs by sulforhodamine B assay; details: SNB-75, 48 h, read-out: Activity
NCI-H322M = assay: Growth inhibition of human NCI-H322M cells assessed as cell growth at 3X10'-5 M after 48 hrs by sulforhodamine B assay; details: read-out: Activity
NCI-H522 [2] = assay: Growth inhibition of human NCI-H522 cells assessed as cell growth at 3X10'-8 M after 48 hrs by sulforhodamine B assay; details: NCI-H522, 48 h, read-out: Activity
CCRF-CEM = assay: Growth inhibition of human CCRF-CEM cells assessed as cell growth at 3X10'-8 M after 48 hrs by sulforhodamine B assay; details: read-out: Activity
A498 [3] = assay: Growth inhibition of human A498 cells assessed as cell growth at 3X10'-8 M after 48 hrs by sulforhodamine B assay; details: A498, 48 h, read-out: Activity
IGROV-1 = assay: Growth inhibition of human IGROV1 cells assessed as cell growth at 3X10'-5 M after 48 hrs by sulforhodamine B assay; details: IGROV-1, 48 h, read-out: Activity
SK-MEL-5 = assay: Growth inhibition of human SK-MEL-5 cells assessed as cell growth at 3X10'-7 M after 48 hrs by sulforhodamine B assay; details: SK-MEL-5, 48 h, read-out: Activity
SW-620 = assay: Growth inhibition of human SW620 cells assessed as cell growth at 3X10'-7 M after 48 hrs by sulforhodamine B assay; details: SW-620, 48 h, read-out: Activity
TK-10 [4] = assay: Growth inhibition of human TK10 cells assessed as cell growth at 3X10'-7 M after 48 hrs by sulforhodamine B assay; details: TK-10, 48 h, read-out: Activity
NCI-H460 [5] = assay: Growth inhibition of human NCI-H460 cells assessed as cell growth at 3X10'-6 M after 48 hrs by sulforhodamine B assay; details: NCI-H460, 48 h, read-out: Activity
COLO 205 = assay: Growth inhibition of human COLO205 cells assessed as cell growth at 3X10'-5 M after 48 hrs by sulforhodamine B assay; details: COLO 205, 48 h, read-out: Activity
TK-10 [6] = assay: Growth inhibition of human TK10 cells assessed as cell growth at 3X10'-5 M after 48 hrs by sulforhodamine B assay; details: TK-10, 48 h, read-out: Activity
[7] = Growth inhibition of human Hs 578T cells assessed as cell growth at 3X10'-8 M after 48 hrs by sulforhodamine B assay; details: read-out: Activity
[8] = Growth inhibition of human HCC2998 cells assessed as cell growth at 3X10'-7 M after 48 hrs by sulforhodamine B assay; details: HCC 2998, 48 h, read-out: Activity
SK-OV-3 = assay: Growth inhibition of human SKOV3 cells assessed as cell growth at 3X10'-7 M after 48 hrs by sulforhodamine B assay; details: SK-OV-3, 48 h, read-out: Activity
HCT-116 = assay: Growth inhibition of human HCT116 cells assessed as cell growth at 3X10'-6 M after 48 hrs by sulforhodamine B assay; details: HCT-116, 48 h, read-out: Activity
MDA-MB-231 = assay: Growth inhibition of human MDA-MB-231 cells assessed as cell growth at 3X10'-5 M after 48 hrs by sulforhodamine B assay; details: MDA-MB-231, 48 h, read-out: Activity
MDA-MB-435 = assay: Growth inhibition of human MDA-MB-435 cells assessed as cell growth at 3X10'-7 M after 48 hrs by sulforhodamine B assay; details: MDA-MB-435, 48 h, read-out: Activity
ACHN = assay: Growth inhibition of human ACHN cells assessed as cell growth at 3X10'-5 M after 48 hrs by sulforhodamine B assay; details: read-out: Activity
RXF 393 = assay: Growth inhibition of human RXF393 cells assessed as cell growth at 3X10'-5 M after 48 hrs by sulforhodamine B assay; details: RXF 393, 48 h, read-out: Activity
NCI-H522 [9] = assay: Growth inhibition of human NCI-H522 cells assessed as cell growth at 3X10'-7 M after 48 hrs by sulforhodamine B assay; details: NCI-H522, 48 h, read-out: Activity
HOP-92 = assay: Growth inhibition of human HOP92 cells assessed as cell growth at 3X10'-8 M after 48 hrs by sulforhodamine B assay; details: HOP-92, 48 h, read-out: Activity
A498 [10] = assay: Growth inhibition of human A498 cells assessed as cell growth at 3X10'-5 M after 48 hrs by sulforhodamine B assay; details: A498, 48 h, read-out: Activity
Malme-3M = assay: Growth inhibition of human MALME-3M cells assessed as cell growth at 3X10'-8 M after 48 hrs by sulforhodamine B assay; details: read-out: Activity
786-0 [11] = assay: Growth inhibition of human 786-0 cells assessed as cell growth at 3X10'-9 M after 48 hrs by sulforhodamine B assay; details: 786-0, 48 h, read-out: Activity
HOP-62 = assay: Growth inhibition of human HOP62 cells assessed as cell growth at 3X10'-5 M after 48 hrs by sulforhodamine B assay; details: HOP-62, 48 h, read-out: Activity
DU-145 = assay: Growth inhibition of human DU145 cells assessed as cell growth at 3X10'-9 M after 48 hrs by sulforhodamine B assay; details: DU-145, 48 h, read-out: Activity
K562 = assay: Growth inhibition of human K562 cells assessed as cell growth at 3X10'-9 M after 48 hrs by sulforhodamine B assay; details: K562, 48 h, read-out: Activity
NCI-H522 [12] = assay: Growth inhibition of human NCI-H522 cells assessed as cell growth at 3X10'-5 M after 48 hrs by sulforhodamine B assay; details: NCI-H522, 48 h, read-out: Activity
SR = assay: Growth inhibition of human SR cells assessed as cell growth at 3X10'-5 M after 48 hrs by sulforhodamine B assay; details: read-out: Activity
MDA-MB-468 = assay: Growth inhibition of human MDA-MB-468 cells assessed as cell growth at 3X10'-5 M after 48 hrs by sulforhodamine B assay; details: MDA-MB-468, 48 h, read-out: Activity
NCI-H460 [13] = assay: Growth inhibition of human NCI-H460 cells assessed as cell growth at 5X10'-8 M after 48 hrs by sulforhodamine B assay; details: NCI-H460, 48 h, read-out: Activity
UO-31 = assay: Growth inhibition of human UO31 cells assessed as cell growth at 5X10'-6 M after 48 hrs by sulforhodamine B assay; details: UO-31, 48 h, read-out: Activity
OVCAR-4 = assay: Growth inhibition of human OVCAR4 cells assessed as cell growth at 5X10'-6 M after 48 hrs by sulforhodamine B assay; details: OVCAR-4, 48 h, read-out: Activity

Structure (SMILES) | growth at 0.003 µM (T47D) [%] | growth at 0.3 µM (786-0 [1]) [%] | growth at 0.3 µM (SF-539) [%] | growth at 0.003 µM (SNB-75) [%] | growth at 30 µM (NCI-H322M) [%] | growth at 0.03 µM (NCI-H522 [2]) [%] | growth at 0.03 µM (CCRF-CEM) [%] | growth at 0.03 µM (A498 [3]) [%] | growth at 30 µM (IGROV-1) [%] | growth at 0.3 µM (SK-MEL-5) [%] | growth at 0.3 µM (SW-620) [%] | growth at 0.3 µM (TK-10 [4]) [%] | growth at 3 µM (NCI-H460 [5]) [%] | growth at 30 µM (COLO 205) [%] | growth at 0.03 µM [7] [%] | growth at 0.3 µM [8] [%] | growth at 0.3 µM (SK-OV-3) [%] | growth at 3 µM (HCT-116) [%] | growth at 0.05 µM (NCI-H460 [13]) [%] | growth at 5 µM (UO-31) [%] | further results
COc1cc(-c2nn(-c3cccc(NC(=O)Nc4ccc(Cl)c(C(F)(F)F)c4)c3)cc2-c2ccncc2)ccc1Cl | 101 | 101 | 91 | 90 | -17 | 104 | 95 | 93 | -37 | 87 | 100 | 101 | 6 | -94 | 89 | 101 | 103 | 11 |  |  | growth at 30 µM (TK-10 [6]): -15%; growth at 30 µM (MDA-MB-231): -76%; growth at 0.3 µM (MDA-MB-435): 91%; growth at 30 µM (ACHN): -4%; growth at 30 µM (RXF 393): -49%; growth at 0.3 µM (NCI-H522 [9]): 100%; growth at 0.03 µM (HOP-92): 74%; growth at 30 µM (A498 [10]): -25%; growth at 0.03 µM (Malme-3M): 102%; growth at 0.003 µM (786-0 [11]): 101%; growth at 30 µM (HOP-62): -51%; growth at 0.003 µM (DU-145): 102%; growth at 0.003 µM (K562): 110%; growth at 30 µM (NCI-H522 [12]): -21%; growth at 30 µM (SR): -12%; growth at 30 µM (MDA-MB-468): -38%
O=C(Nc1cccc(-n2cc(-c3ccncc3)c(-c3ccc(Cl)c(O)c3)n2)c1)Nc1cc(C(F)(F)F)cc(C(F)(F)F)c1 |  |  |  |  |  |  |  |  |  |  |  |  |  |  |  |  |  |  | 101 | -45 | 
COc1cc(-c2nn(-c3cccc(NC(=O)Nc4cccc(C(F)(F)F)c4)c3)cc2-c2ccncc2)ccc1Cl |  |  |  |  |  |  |  |  |  |  |  |  |  |  |  |  |  |  | 102 | -15 | growth at 5 µM (OVCAR-4): 6%
COc1cc(-c2nn(-c3cccc(NC(=O)Nc4cc(C(F)(F)F)cc(C(F)(F)F)c4)c3)cc2-c2ccncc2)ccc1Cl |  |  |  |  |  |  |  |  |  |  |  |  |  |  |  |  |  |  | 100 | -90 | growth at 5 µM (OVCAR-4): 8%
O=C(Nc1cccc(-n2cc(-c3ccncc3)c(-c3ccc(Cl)c(O)c3)n2)c1)Nc1ccc(Cl)c(Cl)c1 | 97 | 103 | 87 | 88 | 11 | 94 | 98 | 95 | 5 | 90 | 101 | 112 | 2 | -70 | 71 | 115 | 98 | 13 |  |  | growth at 30 µM (MDA-MB-231): -22%; growth at 0.3 µM (MDA-MB-435): 91%; growth at 30 µM (ACHN): 1%; growth at 30 µM (RXF 393): -37%; growth at 0.3 µM (NCI-H522 [9]): 97%; growth at 0.03 µM (HOP-92): 93%; growth at 30 µM (A498 [10]): -26%; growth at 0.03 µM (Malme-3M): 89%; growth at 0.003 µM (786-0 [11]): 97%; growth at 30 µM (HOP-62): -13%; growth at 0.003 µM (DU-145): 104%; growth at 0.003 µM (K562): 100%; growth at 30 µM (NCI-H522 [12]): -13%; growth at 30 µM (SR): -5%; growth at 30 µM (MDA-MB-468): -18%
